From US9572786B2, “Use of capsiate or dihydrocapsidate” (Catholic University Industry Academy Cooperation Foundation, priority 2007, dated 2017)

Tested on: Sprague dawley (SD) rats
Experiment: Retinal vascular permeability in streptozotocin induced diabetic retinopathy
Assay type: in vivo, rat
Conditions: intravitreally injected 1-week after streptozotocin, observed at 3 weeks with dextran FITC
Protocol: Diabetes are induced by performing intraperitoneal injection of 60 mg/kg of streptozotocin (Sigma, St Louis, Mo., USA) into 8-week-old male Sprague dawley (SD) rats (250 g). 3 days later, serum glucose level was measured and rats having serum glucose level of […] and more are selected and used in experiments. Capsiate or capsaicin was intravitreally injected 1-week after the injection of streptozotocin, respectively. 3 weeks after the injection of streptozotocin, 0.5 ml of dextran FITC (25 mg/ml, MW 40K, Sigma, St Louis, Mo., USA) was injected through tail vein of tested rats to imaging retinal vascular pattern. Retinal tissues of the rats are isolated and observed by fluorescent microscopy (Olympus, Tokyo, Japan). The increase of retinal vascular permeability is observed in nonproliferative diabetic retinopathy, proliferative diabetic retinopathy and diabetic macular edema and result from cracks in vascular vessel due to breakdown of blood-retinal barrier (BRB).

With COc1cc(CNC(=O)CCCC/C=C/C(C)C)ccc1O [Capsaicin, capsaicin, reference compound] the “increment of retinal vascular permeability” value was “does not effect”.
